Our source for the Km values is paper PMC10625584, “Deciphering triterpenoid saponin biosynthesis by leveraging transcriptome response to methyl jasmonate elicitation in Saponaria vaccaria” (Nature Communications, 2023).

The subject of the assay is T1, SvCslG.
T1 construct: gene CslG; codon-optimized CDS in pESC-URA; S. cerevisiae INVSc1 microsomal protein
Nature of the assay: LC-MS assay with yeast microsomal protein, Michaelis-Menten fit. The assay is classed as biochemical, Gypsophila vaccaria. Conditions: 20 mM Tris-HCl pH 8.0, 30 mM Mg2+, 30 °C.

A word on the Km: it is the substrate concentration at which the rate is half of its maximum. With `O=C(O)[C@H]1O[C@H](OP(=O)(O)OP(=O)(O)OC[C@H]2O[C@@H](n3ccc(=O)[nH]c3=O)[C@H](O)[C@@H]2O)[C@H](O)[C@@H](O)[C@@H]1O` [UDP-GlcA], the Km (quillaic acid co-substrate) was 65 µM.

Turning to `CC1(C)CC[C@]2(C(=O)O)[C@H](O)C[C@]3(C)C(=CC[C@@H]4[C@@]5(C)CC[C@H](O)[C@@](C)(C=O)[C@@H]5CC[C@]43C)[C@@H]2C1` [QA, quillaic acid], the Km (UDP-GlcA co-substrate) was 3.13 µM.
